Data as given in paper PMC3723632, “A Multi-targeted Drug Candidate with Dual Anti-HIV and Anti-HSV Activity” (PLoS Pathogens, 2013).
In brackets after ≈: the same amount, converted by molar mass. Where two headings read alike, the source gives them in different places.

Legend:
HSV-2 (G strain) = experiment: Pre-treatment of PHK cell cultures, HSV-2 infection (CPE)
Description: (§2) The HSV-induced cytopathic effect (CPE) was evaluated in HSV-infected HEL and PHK cultures as described [44], [48].

HIV-2(ROD) = experiment: Anti-HIV-2 activity in CD4+ T-lymphocyte CEM cell cultures; format: cell-based; conditions: Human immunodeficiency virus 2, CCRF-CEM
From the text: Human CD4 ^+ T-lymphocyte CEM cell cultures were inoculated with HIV-1 and HIV-2 and exposed to adefovir, tenofovir, or PMEO-DAPym. […]

PBMC = experiment: Bio-Plex chemokine assay in PBMC cultures; format: cell-based, human; conditions: for MIP-1β induced: 24 h; for production of CC-chemokines: even at 500 µg/ml
Description: Figure 9 Expression of CC-chemokines, CCR5 and chemokine mRNA expression in PBMC cultures after drug treatment. Panel A: Production of CC-chemokines by PBMC and the effects of adefovir, tenofovir, and PMEO-DAPym on the expression of the CCR5 receptor. Freshly isolated PBMCs from four healthy donors were incubated for 24 h with medium only (NC) or with adefovir, tenofovir, or PMEO-DAPym. We collected the supernatants and measured the concentrations of MIP-1α (▪), MIP-1β (▴), and RANTES (•) using a Bioplex system (Bio-Rad, Hercules, CA). Shown are means ± SEM. The cells were also collected, and the expression of the CCR5 receptor (□) was measured with flow cytometry using the PE-labeled CCR5 (clone 2D7) mAb; it is shown as percentage of control (± SEM) from four independent representative experiments. Panel B: Chemokine mRNA expression upon PMEO-DAPym exposure to PBMC. RT-PCR analysis of MIP-1α, MIP-1β, RANTES, and GAPDH (control) expression in PBMC treated with 100-µg/ml PMEO-DAPym for 4 h. Similar results were obtained with PBMC from three different donors. Results from one representative donor are shown.
Freshly isolated PBMC were cultured in the presence of adefovir, tenofovir, and PMEO-DAPym, and culture supernatants were collected after 24 h. We determined the cytokine production profile using the Bio-Plex 200 system (Bio-Rad, Hercules, CA) and a Bio-Plex Human chemokine assay according to the manufacturer's instructions and as described in detail earlier. The assay kit contains beads conjugated with mAbs specific for interferon-inducible protein-10 (IP-10), macrophage inflammatory protein-1α (MIP-α), and MIP-1β, and regulated on activation normal T-cell expressed and secreted (RANTES). For each chemokine, eight standards ranging from approximately 1.5 pg/ml to 32,000 pg/ml were constructed, and the minimum detectable dose was between 1.5 pg/ml and 8 pg/ml. Standard curves and the concentrations of chemokines within samples were generated with the Bio-Plex Manager 4.1 software.

HSV-2 (G) = experiment: HSV-2 replication in human cervico-vaginal explants; format: cell-based; conditions: 1 µg/ml
Description: Figure 6 Suppression of HSV-2 in human cervico-vaginal tissues by adefovir and PMEO-DAPym. Blocks of human cervico-vaginal tissues were inoculated ex vivo with HSV-2 (G) or co-infected with HIV-1 and HSV-2 and treated or not with adefovir (1 µg/ml) or PMEO-DAPym (1 µg/ml). We monitored HSV-2 (G) replication by measuring viral DNA accumulated in culture media at different times throughout the culture period. Presented is cumulative HSV-2 (G) replication, with data representing pooled viral release from 16 tissue blocks.
For cervico-vaginal tissue, 16 blocks were infected by immersion in HSV-2G-containing medium and maintained on the gelfoam rafts. Adefovir was added at the time of infection and replenished at each culture medium change. HSV replication was evaluated from the release of viral DNA into the culture medium as measured with quantitative real-time PCR [18]. We evaluated HIV-1 replication from the release of p24 capsid antigen using a bead-based assay.

HSV-1 and HSV-2 strains = experiment: HSV cytopathicity assay in HEL cell cultures, HSV-1 and HSV-2 stated together; format: cell-based
Description: Figure 2 Antiherpetic activity of test compounds in cell culture. Confluent HEL cell cultures were exposed to 100 TCID50 of clinical virus isolates [wild-type HSV-1 (panel A), wild-type HSV-2 (panel B), TK^− HSV-1 (panel C) and TK^− HSV-2 (panel D)] in the presence of drugs at different concentrations and incubated for 3 days at 37°C. Then, the cytopathicity was determined microscopically and the EC50 values determined. ^aEC50, 50% effective concentration or compound concentration required to reduce virus-induced cytopathicity (CPE) by 50%. Data shown are the means of at least two independent experiments. The HSV-1, HSV-2, HSV-1 TK^−, and HSV-2 TK^− clinical isolates have been described in reference 19, including the nature of the mutations in the TK gene of the acyclovir-resistant virus strains.

[1] = tested on: HSV-1 (KOS and clinical isolates); experiment: microbe, parasite or virus in culture; format: cell-based; conditions: Human alphaherpesvirus 1, HEL
Description: (§1) Figure 2 Antiherpetic activity of test compounds in cell culture. Confluent HEL cell cultures were exposed to 100 TCID50 of clinical virus isolates [wild-type HSV-1 (panel A), wild-type HSV-2 (panel B), TK^− HSV-1 (panel C) and TK^− HSV-2 (panel D)] in the presence of drugs at different concentrations and incubated for 3 days at 37°C. […] Data shown are the means of at least two independent experiments.

[2] = tested on: HSV-2 (G and clinical isolates); experiment: microbe, parasite or virus in culture; format: cell-based; conditions: Human alphaherpesvirus 2, HEL
Description: as §1

HSV-1 (KOS strain) = experiment: Pre-treatment of PHK cell cultures, HSV-1 infection (CPE)
Description: as §2

[3] = Human alphaherpesvirus 2, read-out: 50% effective concentration, PHK, HSV-2 G, +2 h to 72 h (control, drug present whole incubation)
[4] = Human alphaherpesvirus 2, read-out: 50% effective concentration, PHK, HSV-2 G, pretreatment −2.5 h to 0 h
[5] = Human alphaherpesvirus 2, read-out: 50% effective concentration, PHK, HSV-2 G, pretreatment −6 h to 0 h
[6] = Human alphaherpesvirus 2, read-out: 50% effective concentration, PHK, HSV-2 G, pretreatment −18 h to 0 h
[7] = HIV-2(ROD), CEM, virus-induced cytopathicity, read-out: EC50
[8] = thirteen clinical wild-type HSV-1 and HSV-2 isolates, read-out: average EC50
[9] = wild-type laboratory HSV-1 and HSV-2 strains, range, read-out: EC50
[10] = HSV-1, average of six TK-deficient clinical isolates
[11] = HSV-1, average of six clinical isolates
[12] = HSV-2, average of seven TK-deficient clinical isolates
[13] = HSV-2, average of seven clinical isolates
[14] = Human alphaherpesvirus 1, read-out: 50% effective concentration, PHK, HSV-1 KOS, +2 h to 72 h (control, drug present whole incubation)
[15] = Human alphaherpesvirus 1, read-out: 50% effective concentration, PHK, HSV-1 KOS, pretreatment −2.5 h to 0 h
[16] = Human alphaherpesvirus 1, read-out: 50% effective concentration, PHK, HSV-1 KOS, pretreatment −6 h to 0 h
[17] = Human alphaherpesvirus 1, read-out: 50% effective concentration, PHK, HSV-1 KOS, pretreatment −18 h to 0 h

Compound | EC50 (HSV-2 (G strain); [3]) [µg/mL] | EC50 (HSV-2 (G strain); [4]) [µg/mL] | EC50 (HSV-2 (G strain); [5]) [µg/mL] | EC50 (HSV-2 (G strain); [6]) [µg/mL] | EC50 (HIV-2(ROD); [7]) [µg/mL] | inhibition of HSV-2 infection (HSV-2 (G)) | EC50 (HSV-1 and HSV-2 strains; [8]) [µg/mL] | EC50 (HSV-1 and HSV-2 strains; [9]) [µg/mL] | EC50 ([1]; HSV-1 (KOS)) [µg/mL] | EC50 [1, 10] [µg/mL] | EC50 [1, 11] [µg/mL] | EC50 ([2]; HSV-2 (G)) [µg/mL] | EC50 [2, 12] [µg/mL] | EC50 [2, 13] [µg/mL] | EC50 (HSV-1 (KOS strain); [14]) [µg/mL] | EC50 (HSV-1 (KOS strain); [15]) [µg/mL] | EC50 (HSV-1 (KOS strain); [16]) [µg/mL] | EC50 (HSV-1 (KOS strain); [17]) [µg/mL] | production of CC-chemokines (PBMC) | also measured
Nc1cc(OCCOCP(=O)(O)O)nc(N)n1 [PMEO-DAPym, 6-phosphonylmethoxyethoxy-2,4-diaminopyrimidine] | 3.5 ± 1.1 (≈ 13.2 µM) | 31.6 (≈ 120 µM) | 12.6 (≈ 47.7 µM) | 8.7 ± 1.8 (≈ 32.9 µM) | 0.66 ± 0.19 (≈ 2.5 µM) | markedly inhibited | ~2 (≈ 7.57 µM) | 2.6 to 6.3 (≈ 9.84 to 23.8 µM) | 2.6 ± 1.2 (≈ 9.84 µM) | 2.4 ± 0.6 (≈ 9.08 µM) | 2 ± 0.5 (≈ 7.57 µM) | 4.4 ± 2.4 (≈ 16.7 µM) | 2.4 ± 0.4 (≈ 9.08 µM) | 2 ± 0.4 (≈ 7.57 µM) | 2.6 ± 0.8 (≈ 9.84 µM) | 31.6 (≈ 120 µM) | 29.6 (≈ 112 µM) | 7 ± 0.6 (≈ 26.5 µM) |  | effect on IP-10 levels (PBMC): did not affect IP-10 levels; MIP-1β induced (PBMC; 20 µg/ml): 7.5 ng/mL; MIP-1β induced (PBMC; 100 µg/ml): 20 ng/mL; MIP-1β induced (PBMC; 500 µg/ml): 27 ng/mL; EC50 (HSV-1 and HSV-2 strains; TK− HSV isolates, read-out: average EC50): 2.4 µg/mL (≈ 9.08 µM)
C[C@H](Cn1cnc2c(N)ncnc21)OCP(=O)(O)O [Tenofovir, 9-(2-phosphonylmethoxypropyl)adenine] |  |  |  |  |  |  | ~130 (≈ 453 µM) | 105 to 122 (≈ 366 to 425 µM) | 105 ± 20 (≈ 366 µM) | 151 ± 19 (≈ 526 µM) | 125 ± 12 (≈ 435 µM) | 122 ± 51 (≈ 425 µM) | 121 ± 15 (≈ 421 µM) | 139 ± 11 (≈ 484 µM) |  |  |  |  | Neither adefovir nor tenofovir induced notable production of CC-chemokines | EC50 (HIV-2(ROD)): 0.43 ± 0.41 µg/mL (≈ 1.5 µM)
Nc1ncnc2c1ncn2CCOCP(=O)(O)O [Adefovir, 9-(2-phosphonylmethoxyethyl)adenine] | 9.2 ± 6 (≈ 33.7 µM) | 20 (≈ 73.2 µM) | 11.9 (≈ 43.6 µM) | 13.3 ± 2.6 (≈ 48.7 µM) | 1.9 ± 1.1 (≈ 6.95 µM) | markedly inhibited | ~6 (≈ 22 µM) | 2.6 to 6.3 (≈ 9.52 to 23.1 µM) | 4.7 ± 1.8 (≈ 17.2 µM) | 7 ± 1.4 (≈ 25.6 µM) | 6.2 ± 1 (≈ 22.7 µM) | 6.3 ± 2.6 (≈ 23.1 µM) | 7.5 ± 1.5 (≈ 27.5 µM) | 5.9 ± 0.9 (≈ 21.6 µM) | 5.1 ± 1.7 (≈ 18.7 µM) | 30 (≈ 110 µM) | 23.3 (≈ 85.3 µM) | 8.2 ± 1.6 (≈ 30 µM) | Neither adefovir nor tenofovir induced notable production of CC-chemokines | 
